In PubChem BioAssay AID1963446 (Molecular Pharmacology Branch, DTP, NCI, 2024) one finds viability, T/C and IC50 data, which are given here for 14 compounds.

Molecules are shown by their SMILES. “And” between values parts separate entries of the source, which are not always exact repeats. Identical values can stand only once.

The assay deals with 993429-296-R-J1-PDC complex spheroid growth, percent test/control. The assay is described as follows: Anticancer human tumor 993429-296-R-J1-PDC patient-derived uterine sarcoma cell line growth inhibition [Asc]. As to conditions: for viability, T/C: stronger effect = lower value. The method, then: Multicellular complex tumor spheroid response to apoptosis pathway targeting inhibitors Alrizomadlin, Pelcitoclax, and Dasminapant in combination with a variety of drugs and investigational agents in selected tumor cell lines
The MDM2 inhibitor alrizomadlin, the Bcl-2/Bcl-xL inhibitor pelcitoclax, and the IAPs inhibitor dasminapant were evaluated both individually and in combination with standard of care and investigational anticancer small molecules within a complex spheroid model of solid tumors. . Complex spheroids include a stromal component modeled by human endothelial cells (HUVEC) and fibroblasts modeled by human mesenchymal stem cells (MSCs). The concentration ranges selected for each drug and investigational agent were based upon clinically achievable concentrations if the clinical Cmax of the agent was known.
Compounds. The drugs and investigational agents: alrizomadlin (APG-115; NSC831270), pelcitoclax (APG-1252; NSC835773), dasminapant (APG-1387;NSC834197), TAK-243 (NSC785004), copanlisib (NSC809693), olaparib (NSC753686), talazoparib (NSC767125), cobimetinib (NSC 768068), eltanexor (KPT-8602, NSC 794443), abemaciclib (NSC 768073), sotorasib (NSC818433), adagrasib (NSC 831453), MRTX-1133 (NSC 836407), Iadademestat (ORY1001, NSC 806812), and RMC-4630 (NSC839698), were obtained from the NCI Developmental Therapeutics Program Chemical Repository. The FDA-approved anticancer drug set is available from the Developmental Therapeutics Program at https://dtp.cancer.gov/organization/dscb/obtaining/available plates.htm. […] The stock solutions were prepared in dimethyl sulfoxide (DMSO, Sigma-Aldrich, St. Louis, MO, cat. D2650) at 800-fold the tested concentration and stored at -70 degrees C prior to their use. All drugs and investigational agents were tested over a range starting from a high concentration at or near the clinical Cmax and decreasing in half-log increments. If the clinical Cmax for an agent had not been determined, the highest concentration tested was 10 microM.
The patient-derived cancer (PDC) cell lines include five colon adenocarcinomas: 186277-243-T-J2-PDC, 616215-338-R-J1-PDC, 439559-082-T-J2-PDC, 463943-066-T-J2-PDC, and 519858-162-T-J1-PDC; three pancreatic carcinomas: 323965-272-R-J2-PDC, 521955-158-R6-J3-PDC, and 521955-158-R2-J5-PDC; two uterine sarcomas: 327498-152-R-J2-PDC and 993429-296-R-J1-PDC; two rhabdomyosarcomas: 755483-174-R-J1-PDC and 772245-204-R-J1-PDC; two soft tissue sarcomas: 126254-015-R-J1-PDC and 494315-158-R-J1-PDC; two malignant fibrous histiocytomas: 317291-083-R-J1-PDC and 596521-263-R-J1-PDC; two breast carcinomas: 171881-019-R-J1-PDC and 885512-296-R-J2-PDC; and one ovarian carcinoma: 6556581-035-R-J-PDC were obtained from the NCI PDMR, (https://pdmr.cancer.gov). The established cell lines HSSY-2 synovial sarcoma (RRID:CVCL 8719), SYO-1 synovial sarcoma (RRID:CVCL_7146), MPNST malignant peripheral neural sheath tumor were obtained from the Sloan Kettering Institute. The following established cell lines were purchased from the American Type Culture Collection (ATCC, Manassas, VA), Sor the received from the NCI repository:, PANC-1 pancreatic carcinoma (CRL-1469, RRID:CVCL_0480), OVCAR-5 ovarian carcinoma (RRID:CVCL_1628), OVCAR-8 ovarian carcinoma (RRID:CVCL_1629), , MCF-7 breast carcinoma (CRL-12584, RRID:CVCL_0031), MDA-MB-231 breast carcinoma (CRL-12532, RRID:CVCL_0062), NCI-H1876 small cell lung carcinoma (CRL-5902, RRID:CVCL_1503), NCI-H510A small cell lung carcinoma (HTB-184, RRID:CVCL_1565), NCI-H1417 (CRL-5869, RRID:CVCL_1469), and NCI-H196 small cell lung carcinoma (CRL-5823, RRID:CVCL_1509). Dr. Peter Houghton (Greehey Children's Cancer Research Institute, University of Texas Health Science Center, San Antonio, TX) provided Rh-18 rhabdomyosarcoma (RRID:CVCL_1659). Pooled donor human umbilical vein endothelial cells (HUVEC, Lonza, cat. CC-2519) and human mesenchymal stem cells (hMSC, Lonza, cat. PT-2501) were purchased from Lonza (Walkersville, MD).
Cell Culture. […]
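Also: spheroids exposed to compounds for seven days.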

For orientation: viability, T/C means the ratio of treated to control. For orientation: IC50 means the point on the concentration scale where inhibition reaches its midpoint. With `C#Cc1c(F)ccc2cc(O)cc(-c3ncc4c(N5CC6CCC(C5)N6)nc(OCC56CCCN5CC(F)C6)nc4c3F)c12` (configuration not stated), the viability, T/C reads like this: (compound 0.0316 µM) 102% and 88% and 97.9%; (compound 0.1 µM) 108% and 101% and 89.1%; (compound 0.316 µM) 86% and 86.7% and 88.8%; (compound 1 µM) 93.3% and 82.2% and 100%; (compound 3.16 µM) 91.9% and 81.4% and 106%. Further, the IC50 (curve of compound) was > 10000 nM and 5020 nM and 5680 nM.
Take `C=C(F)C(=O)N1CCN(c2nc(OCC3CCCN3C)nc3c2CCN(c2cccc4cccc(Cl)c24)C3)CC1CC#N` (configuration not stated): the viability, T/C runs as follows: (compound 0.0316 µM) 85.9% and 98.6% and 98.2%; (compound 0.1 µM) 93.5% and 103% and 95.2%; (compound 0.316 µM) 82.5% and 88.7% and 91.7%; (compound 1 µM) 43.8% and 63.6% and 99.8%; (compound 3.16 µM) 6.98% and 7.87% and 29.6%; (compound 10 µM) 0.4% and 0.19% and 0.21%. Under “curve of compound”, the IC50 is 836 nM and 1300 nM and 2220 nM.
Regarding `C=CC(=O)N1CCN(c2nc(=O)n(-c3c(C)ccnc3C(C)C)c3nc(-c4c(O)cccc4F)c(F)cc23)C(C)C1` (configuration not stated), the viability, T/C is, setting by setting: (compound 0.0316 µM) 90.9% and 96.8% and 96.9%; (compound 0.1 µM) 104% and 92.1% and 93.1%; (compound 0.316 µM) 104% and 92.4% and 105%; (compound 1 µM) 102% and 106% and 110%; (compound 3.16 µM) 64.9% and 109% and 115%; (compound 10 µM) 72.8% and 77% and 94%. For the same compound, the IC50 (curve of compound) is over 10000 nM.
As for `CCN1C(C(=O)NC23CCC(C(=O)O)(CC2)CC3)C(c2cccc(Cl)c2F)C2(C(=O)Nc3cc(Cl)ccc32)C12CCCCC2` (configuration not stated), where the note is “compound 0.00949 µM”, the viability, T/C is 92.7% and 92.5%. Further, the IC50 is over 3000 nM (compound alone, run of 09/27/2022) and over 3000 nM (curve of compound).
Regarding `CCN1CCN(Cc2ccc(Nc3ncc(F)c(-c4cc(F)c5nc(C)n(C(C)C)c5c4)n3)nc2)CC1`, the viability, T/C by setting is: (compound 0.00316 µM) 90.1% (2×) and 100%; (compound 0.01 µM) 86.7% and 111% and 99.3%; (compound 0.0316 µM) 94.1% and 105% and 92.7%; (compound 0.1 µM) 85.6% and 98.3% and 93.6%; (compound 0.316 µM) 98.6% and 119% and 100%; (compound 1 µM) 88.5% and 94.9% and 86.3%. The half-maximal inhibitory concentration (IC50) (curve of compound) is over 1000 nM.
`CNC(C)C(=O)NC1CN(S(=O)(=O)c2cccc(S(=O)(=O)N3CCC4CCC(C(=O)NC(c5ccccc5)c5ccccc5)N4C(=O)C(NC(=O)C(C)NC)C3)c2)CCC2CCC(C(=O)NC(c3ccccc3)c3ccccc3)N2C1=O` (configuration not stated): the viability, T/C (compound 0.00316 µM) was 80% and 76.5%; the viability, T/C (compound 0.01 µM) is 68.6% [middle of 15 runs]; the viability, T/C (compound 0.0316 µM) was 62.4% [middle of 15 runs]; the viability, T/C (compound 0.1 µM) was 55.9% [middle of 15 runs]; the viability, T/C (compound 1 µM) is 50.4% [middle of 15 runs]. Further, the IC50 (curve of compound) was over 1000 nM.
`COc1c(OCCCN2CCOCC2)ccc2c3n(c(=NC(=O)c4cnc(N)nc4)nc12)CCN3`: the viability, T/C is 91.3% and 101% and 95.5% (compound 0.00316 µM); 76.7% and 74.9% and 85.9% (compound 0.01 µM); 32.1% and 39% and 47.7% (compound 0.0316 µM); 7.79% and 8.14% and 20.2% (compound 0.1 µM); 3.91% and 3.64% and 6.96% (compound 0.316 µM); 1.4% and 1.43% and 2.5% (compound 1 µM). Also, the IC50 (curve of compound) was 20 nM and 21.5 nM and 31.6 nM.
Regarding `Cc1c(S(C)(=O)=O)c(-c2cc(F)cc(N3CCN(c4ccc(NS(=O)(=O)c5ccc(NC(CCN6CCC(C(=O)OCCCP(=O)(O)O)CC6)CSc6ccccc6)c(S(=O)(=O)C(F)(F)F)c5)cc4)CC3)c2)c(-c2ccc(Cl)cc2)n1C(C)C` (configuration not stated), the viability, T/C reads like this: (compound 0.316 µM) 60.7% [middle of 14 runs]; (compound 3.16 µM) 49.6% [middle of 14 runs].
For the compound `Cc1nc(N2CCC3(CC2)COC(C)C3N)c(CO)nc1Sc1ccnc(N)c1Cl` (configuration not stated), the viability, T/C runs as follows: (compound 0.00949 µM) 94.6% and 84.2% and 83.6%; (compound 0.03 µM) 93.1% and 77% and 87.6%; (compound 0.0949 µM) 75.2% and 65.9% and 54.9%; (compound 0.3 µM) 58.9% and 43% and 42.1%; (compound 0.949 µM) 49% and 32.2% and 34.5%; (compound 3 µM) 40.3% and 25.8% and 27.8%. For the same compound, the 50% inhibitory concentration (IC50) (curve of compound) is 712 nM and 216 nM and 144 nM.
Consider `Cn1ncnc1[C@H]1c2n[nH]c(=O)c3cc(F)cc(c23)N[C@@H]1c1ccc(F)cc1`, for which the viability, T/C was 92.8% and 98.9% and 94.3% (compound 0.000316 µM); 93.2% and 97.5% and 95.5% (compound 0.001 µM); 83.8% and 99.4% and 81.2% (compound 0.00316 µM); 74.3% and 92% and 84.6% (compound 0.01 µM); 62.5% and 70.2% and 57.7% (compound 0.0316 µM); 35.8% and 69.9% and 42% (compound 0.1 µM). In addition, the IC50 (curve of compound) is 52.4 nM and > 100 nM and 58.6 nM.
Consider `NC(=O)C(=Cn1cnc(-c2cc(C(F)(F)F)cc(C(F)(F)F)c2)n1)c1cncnc1`, for which the viability, T/C (compound 0.000949 µM) is 94.3% and 102% and 110%; the viability, T/C (compound 0.003 µM) is 82.4% and 87.5% and 105%; the viability, T/C (compound 0.00949 µM) was 76.6% and 76% and 91.7%; the viability, T/C (compound 0.03 µM) was 41.9% and 34.6% and 60.8%; the viability, T/C (compound 0.0949 µM) was 17% and 17.8% and 30.1%; the viability, T/C (compound 0.3 µM) was 8.93% and 7.15% and 11.8%. In addition, the IC50 (curve of compound) is 23 nM and 19.9 nM and 45.4 nM.
Take `NC1CCC(NC2CC2c2ccccc2)CC1` (configuration not stated): the viability, T/C was 72.9% and 80.7% and 109% (compound 0.000316 µM); 70.1% and 86.3% and 87% (compound 0.001 µM); 85.3% and 78.1% and 85.6% (compound 0.00316 µM); 78.4% and 94.6% and 91.1% (compound 0.01 µM); 68% and 88.5% and 86.8% (compound 0.0316 µM); 74.9% and 76.6% and 79.7% (compound 0.1 µM). Besides, the IC50 (curve of compound) was over 100 nM.
As to `O=C(c1cc(Cc2n[nH]c(=O)c3ccccc23)ccc1F)N1CCN(C(=O)C2CC2)CC1`, the viability, T/C runs as follows: (compound 0.0316 µM) 83.4% and 99.6% and 106%; (compound 0.1 µM) 84.4% and 88.2% and 103%; (compound 0.316 µM) 90.3% and 89.3% and 93%; (compound 1 µM) 72.8% and 82.6% and 105%; (compound 3.16 µM) 67.7% and 68.7% and 83.8%; (compound 10 µM) 25.3% and 43% and 44.8%. For the same compound, the concentration for half-maximal inhibition (IC50) (curve of compound) is 4950 nM and 7380 nM and 8570 nM.
With `O=C(c1ccc(F)c(F)c1Nc1ccc(I)cc1F)N1CC(O)([C@@H]2CCCCN2)C1`, the viability, T/C by setting is: (compound 0.00316 µM) 94.3% and 75.1% and 94.5%; (compound 0.01 µM) 86% and 69.7% and 83.4%; (compound 0.0316 µM) 62.6% and 54.8% and 79.4%; (compound 0.1 µM) 41% and 34.7% and 70.9%; (compound 0.316 µM) 14.8% and 10.7% and 39.1%; (compound 1 µM) 1.26% and 1.77% and 3.59%. The 50% inhibitory concentration (IC50) (curve of compound) was 61.4 nM and 42.6 nM and 212 nM.
